Experimental data reported in patent US11278682B2, “Device and method for aerosolized delivery of substance to a natural orifice of the body” (SIPNOSE LTD., priority 2014, dated 2022).

Tested on: Pentylenetetrazol (PTZ)-induced epileptic seizures in rats
Test: Pentylenetetrazol (PTZ)-induced epileptic seizures, Racine grading, Midazolam IV vs SipNose
Assay type: in vivo, rat
Procedure: In this example, epileptic seizures were induced in rats by administration of 47.5-50 mg/kg of Pentylenetetrazol (PTZ) for 5 min before the start of treatment with Midazolam. The Midazolam was administered either via IV or using a SipNose device, via the nasal passages. There were two dosing levels, 0.6 mg/kg (FIG. 78) and 6 mg/kg (FIG. 79).
In all cases, the Racine grading standard was used to determine the severity of the seizures. PZT was at t=−5 min, the start of treatment was at time t=0.
Treatment consisted of saline (control, diamonds), Midazolam administered by IV (triangles) or Midazolam administered nasally by a SipNose device (squares).

Cc1ncc2n1-c1ccc(Cl)cc1C(c1ccccc1F)=NC2 [Midazolam]
Racine seizure severity (0.6 mg/kg Midazolam nasally by SipNose, about t=10 min to t=60 min): zero, no seizures were seen
Racine seizure severity (6 mg/kg Midazolam IV): < 0.5
Racine seizure severity (6 mg/kg Midazolam nasally by SipNose): < 0.5
